Experiments:
HCV RNA replicon ET = experiment: HCV RNA replicon luciferase reporter assay, antiviral activity; assay type: cell-based; settings: ET replicon cells, 72 h, LUC activity; for EC50: concentration reducing viral replication by 50%; for EC90: concentration reducing viral replication by 90%
HIV-1IIIB = experiment: HIV MTS cytoprotection assay in CEM-SS cells; assay type: cell-based, human immunodeficiency virus-1; settings: 6 days post-infection, concentration inhibiting virus replication by 50%
CEM-SS cells = experiment: Compound cytotoxicity in the HIV MTS assay (cells plus drug only); assay type: cell-based, human; settings: 50% inhibition of cell growth
Experimental: In this MTS cytoprotection assay, each experiment included cell control wells (cells only), virus control wells (cells plus virus), drug toxicity wells (cells plus drug only), drug colorimetric control wells (drug only) as well as experimental wells (drug plus cells plus virus). […] HIV-1RF was added to each well in a volume of 50 μL, the amount of virus determined to give approximately 90% cell killing at 6 days post-infection. At assay termination, assay plates were stained with the soluble tetrazolium-based dye MTS (CellTiter 96 Reagent, Promega) to determine cell viability and quantify compound toxicity. MTS is metabolized by the mitochondria enzymes of metabolically active cells to yield a soluble formazan product, providing a quantitative analysis of cell viability and compound cytotoxicity. The assay was validated in parallel experiments using Zidovudine (3′-azido-3′-deoxythymidine or AZT) as a positive control.

[1] = test system: human hepatoma cell line ET; experiment: Cytotoxicity in the replicon cell line, colorimetric assay of cell numbers; settings: ET cells, 72 h; for IC50: read-out: Cytotoxicity IC50, concentration inhibiting cell viability by 50%; for IC90: read-out: Cytotoxicity IC90, concentration inhibiting cell viability by 90%
From the text: Compounds were examined in the human hepatoma cell line ET (lub ubi heo/ET), a HCV RNA replicon containing a stable luciferase (LUC) reporter. The HCV RNA replicon ET contains the 5′ end of HCV (with the HCV Internal Ribosome Entry Site (IRES) and the first few amino acids of the HCV core protein) which drives the production of a firefly luciferase (LUC), ubiquitin, and neomycin phosphotransferase (NeoR) fusion protein. Ubiquitin cleavage releases the LUC and NeoR proteins. The EMCV IRES element controls the translation of the HCV […] NS3-NS5. The NS3 protein cleaves the HCV polyprotein to release the mature NS3, NS4A, NS4B, NS5A and NS5B proteins that are required for HCV replication. At the 3′ end of the replicon is the authentic 3′ NTR of HCV. The activity of the LUC reporter is directly proportional to HCV replication levels and positive-control antiviral compounds produce a reproducible antiviral response using the LUC endpoint.
The compounds were dissolved in DMSO at five half-log concentrations each, ranging from either 0.02 to 2.0 μM, 0.03 to 3 μM, […], or 1 to 100 μM. Subconfluent cultures of the ET line were plated out into 96 well plates dedicated for the analysis of cell numbers (cytotoxicity) or antiviral activity and the next day the compounds were added to the appropriate wells. The cells were processed 72 h later when the cells were still subconfluent. […] The activity of the LUC reporter is directly proportional to HCV RNA levels in the human cell line. The HCV-replicon assay was validated in parallel experiments using interferon-alpha-2b as a positive control.

Row | Structure (SMILES) | EC50 (HCV RNA replicon ET) [nM] | EC90 (HCV RNA replicon ET) [nM] | EC50 (HIV-1IIIB) [nM] | IC50 (CEM-SS cells) [nM] | IC50 [1] [nM] | IC90 [1] [nM]
1 | C/C=C/C[C@@H](C)[C@@H](O)[C@H]1C(=O)N[C@@H](CC)C(=O)N(C)C(SCC)C(=O)N(C)[C@@H](CC(C)C)C(=O)N[C@@H](C(C)C)C(=O)N(C)[C@@H](CC(C)C)C(=O)N[C@@H](C)C(=O)N[C@H](C)C(=O)N(C)[C@@H](CC(C)C)C(=O)N(C)[C@@H](CC(C)C)C(=O)N(C)[C@@H](C(C)C)C(=O)N1C (stereo partly shown) [P, 3-ethylthiocyclosporin] | 230 | 580 | 160 | 6150 | 6150 | > 20000
2 | C/C=C/C[C@@H](C)[C@@H](O)[C@H]1C(=O)N[C@@H](CC)C(=O)N(C)C(OCCOC)C(=O)N(C)[C@@H](CC(C)(C)O)C(=O)N[C@@H](C(C)C)C(=O)N(C)[C@@H](CC(C)C)C(=O)N[C@@H](C)C(=O)N[C@H](C)C(=O)N(C)[C@@H](CC(C)C)C(=O)N(C)[C@@H](CC(C)C)C(=O)N(C)[C@@H](C(C)C)C(=O)N1C (stereo partly shown) [X, 3-[2-(methoxy)ethoxy]-4-(gamma-hydroxymethylleucine)cyclosporin] | 480 | 1500 | 1000 | > 20000 | > 2000 | > 2000
3 | C/C=C/C[C@@H](C)[C@@H](O)[C@H]1C(=O)N[C@@H](CC)C(=O)N(C)C(SC)C(=O)N(C)[C@@H](CC(C)(C)O)C(=O)N[C@@H](C(C)C)C(=O)N(C)[C@@H](CC(C)C)C(=O)N[C@@H](C)C(=O)N[C@H](C)C(=O)N(C)[C@@H](CC(C)C)C(=O)N(C)[C@@H](CC(C)C)C(=O)N(C)[C@@H](C(C)C)C(=O)N1C (stereo partly shown) [S, 3-(methylthio)-4-(gamma-hydroxymethylleucine)cyclosporin] | – | 160 | 90 | 14000 | > 2000 | > 2000
4 | C/C=C/C[C@@H](C)[C@@H](O)[C@H]1C(=O)N[C@@H](CC)C(=O)N(C)[C@H](OC(C)C)C(=O)N(C)[C@@H](CC(C)C)C(=O)N[C@@H](C(C)C)C(=O)N(C)[C@@H](CC(C)C)C(=O)N[C@@H](C)C(=O)N[C@H](C)C(=O)N(C)[C@@H](CC(C)C)C(=O)N(C)[C@@H](CC(C)C)C(=O)N(C)[C@@H](C(C)C)C(=O)N1C [D, 3-(isopropoxy)cyclosporin] | 290 | 1320 | 1360 | > 20000 | 17200 | > 20000
5 | C/C=C/C[C@@H](C)[C@@H](O)[C@H]1C(=O)N[C@@H](CC)C(=O)N(C)C(OCCCO)C(=O)N(C)[C@@H](CC(C)C)C(=O)N[C@@H](C(C)C)C(=O)N(C)[C@@H](CC(C)C)C(=O)N[C@@H](C)C(=O)N[C@H](C)C(=O)N(C)[C@@H](CC(C)C)C(=O)N(C)[C@@H](CC(C)C)C(=O)N(C)[C@@H](C(C)C)C(=O)N1C (stereo partly shown) [H, 3-(3-hydroxypropoxy)cyclosporin] | < 200 | 370 | 1380 | 13300 | > 20000 | > 20000
6 | C=CCS[C@@H]1C(=O)N(C)[C@@H](CC(C)C)C(=O)N[C@@H](C(C)C)C(=O)N(C)[C@@H](CC(C)C)C(=O)N[C@@H](C)C(=O)N[C@H](C)C(=O)N(C)[C@@H](CC(C)C)C(=O)N(C)[C@@H](CC(C)C)C(=O)N(C)[C@@H](C(C)C)C(=O)N(C)[C@@H]([C@H](O)[C@H](C)C/C=C/C)C(=O)N[C@@H](CC)C(=O)N1C [Q, 3-propenylthiocyclosporin] | 210 | 620 | 230 | 18900 | 18900 | > 20000
7 | C/C=C/C[C@@H](C)[C@@H](O)[C@H]1C(=O)N[C@@H](CC)C(=O)N(C)[C@H](SCCN(C)C)C(=O)N(C)[C@@H](CC(C)(C)O)C(=O)N[C@@H](C(C)C)C(=O)N(C)[C@@H](CC(C)C)C(=O)N[C@@H](C)C(=O)N[C@H](C)C(=O)N(C)[C@@H](CC(C)C)C(=O)N(C)[C@@H](CC(C)C)C(=O)N(C)[C@@H](C(C)C)C(=O)N1C [Compound O, 3-[(R)-2-(N,N-dimethylamino)ethylthio-Sar]-4-(gamma-hydroxymethylleucine)cyclosporin] | 122 | 300 | 60 | 20000 | 13400 | > 20000
8 | C/C=C/C[C@@H](C)[C@@H](O)[C@H]1C(=O)N[C@@H](CC)C(=O)N(C)[C@H](SCCOC)C(=O)N(C)[C@@H](CC(C)(C)O)C(=O)N[C@@H](C(C)C)C(=O)N(C)[C@@H](CC(C)C)C(=O)N[C@@H](C)C(=O)N[C@H](C)C(=O)N(C)[C@@H](CC(C)C)C(=O)N(C)[C@@H](CC(C)C)C(=O)N(C)[C@@H](C(C)C)C(=O)N1C [Compound N, 3-(2-methoxyethylthio)-4-(gamma-hydroxymethylleucine)cyclosporin] | < 200 | < 200 | 350 | – | > 20000 | > 20000
9 | C/C=C/C[C@@H](C)[C@@H](O)[C@H]1C(=O)N[C@@H](CC)C(=O)N(C)[C@H](OCCN2CCOCC2)C(=O)N(C)[C@@H](CC(C)C)C(=O)N[C@@H](C(C)C)C(=O)N(C)[C@@H](CC(C)C)C(=O)N[C@@H](C)C(=O)N[C@H](C)C(=O)N(C)[C@@H](CC(C)C)C(=O)N(C)[C@@H](CC(C)C)C(=O)N(C)[C@@H](C(C)C)C(=O)N1C [Compound L, 3-[2-(N-morpholine)ethoxy)cyclosporin] | 280 | 1250 | 1930 | 19500 | 11500 | > 20000
10 | C=CCO[C@@H]1C(=O)N(C)[C@@H](CC(C)(C)O)C(=O)N[C@@H](C(C)C)C(=O)N(C)[C@@H](CC(C)C)C(=O)N[C@@H](C)C(=O)N[C@H](C)C(=O)N(C)[C@@H](CC(C)C)C(=O)N(C)[C@@H](CC(C)C)C(=O)N(C)[C@@H](C(C)C)C(=O)N(C)[C@@H]([C@H](O)[C@H](C)C/C=C/C)C(=O)N[C@@H](CC)C(=O)N1C [U, 3-(prop-2-ene-1-oxy)-4-(gamma-hydroxymethylleucine)cyclosporin] | 90 | 450 | 110 | 13400 | > 2000 | > 2000
11 | C/C=C/C[C@@H](C)[C@@H](O)[C@H]1C(=O)N[C@@H](CC)C(=O)N(C)[C@H](OCCCOC)C(=O)N(C)[C@@H](CC(C)(C)O)C(=O)N[C@@H](C(C)C)C(=O)N(C)[C@@H](CC(C)C)C(=O)N[C@@H](C)C(=O)N[C@H](C)C(=O)N(C)[C@@H](CC(C)C)C(=O)N(C)[C@@H](CC(C)C)C(=O)N(C)[C@@H](C(C)C)C(=O)N1C [Y, 3-[3-(methoxy)propoxy]-4-(gamma-hydroxymethylleucine)cyclosporin] | 300 | 950 | 520 | > 20000 | > 2000 | > 2000
12 | C/C=C/C[C@@H](C)[C@@H](O)[C@H]1C(=O)N[C@@H](CC)C(=O)N(C)C(OC)C(=O)N(C)[C@@H](CC(C)(C)O)C(=O)N[C@@H](C(C)C)C(=O)N(C)[C@@H](CC(C)C)C(=O)N[C@@H](C)C(=O)N[C@H](C)C(=O)N(C)[C@@H](CC(C)C)C(=O)N(C)[C@@H](CC(C)C)C(=O)N(C)[C@@H](C(C)C)C(=O)N1C (stereo partly shown) [Compound T, 3-(methoxy)-4-(gamma-hydroxymethylleucine)cyclosporin] | – | – | – | 18000 | > 2000 | > 2000

Source: patent US7718767B2, “3-ether and 3-thioether substituted cyclosporin derivatives for the treatment and prevention of hepatitis C infection” (Scynexis, Inc., priority 2006, dated 2010)
